Laboratory results as given in the supplement of paper PMC10627819.

Legend:
S. aureus Newman = test: Bliss interaction score (quartile over a dose matrix) (fitness difference); higher = more antagonism (negative = synergy)
Summary of the method: (§1)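 Fitness here means normalised growth, inferred for single drugs from the combination data. Growth was OD595 at entry into stationary phase, divided by the plate's robust no-drug mean and capped at 1. The Bliss score is observed minus expected fitness, with the expectation being the product, and its quartiles span technical, biological and donor/recipient replicates.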

S. aureus DSM 20231 = test: as above
Summary of the method: as §1

B. subtilis 168 = test: as above
Summary of the method: as §1

S. pneumoniae D39V [1] = test: as above
Summary of the method: as §1

S. pneumoniae D39V [2] = test: fitness (endpoint OD595 vs no drug) (fraction); higher = more growth
Summary of the method: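 Fitness expresses the optical density reached at the stationary-phase transition as a fraction of the robust mean of no-drug control wells. It is capped at 1. Measurements were OD595 every 30 min for 14 h at 37 °C after inoculation of 384-well plates at OD595 0.01 (30 µl, or 55 µl for S. pneumoniae), minus the first reading.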
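Wherever Bliss interaction score (quartile over a dose matrix) is given: first quartile when negative (synergy) and third quartile when positive (antagonism).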
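Wherever fitness (endpoint OD595 vs no drug) is given: OD595 on entry to stationary phase over no-drug wells; at most 1.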

C[C@@H](O)[C@H]1C(=O)N2C(C(=O)O)=C(SCCNC=N)C[C@H]12 [Imipenem] + Cc1onc(-c2ccccc2)c1C(=O)N[C@@H]1C(=O)N2[C@@H]1SC(C)(C)[C@@H]2C(=O)O [Oxacillin]
Settings	Bliss interaction score
B. subtilis 168	-0.048
S. aureus DSM 20231	-0.0527
S. aureus Newman	0.0474
S. pneumoniae D39V [1]	0.0736

fitness, S. pneumoniae D39V [2]
Settings	first compound 0.005 µg/mL	first compound 0.0065 µg/mL	first compound 0.01 µg/mL	first compound 0.013 µg/mL	first compound 0.02 µg/mL	first compound 0.026 µg/mL
partner 0.01 µg/mL	0.963	0.968	0.983	0.996	0.95	0.956
partner 0.02 µg/mL	0.92	0.845	0.933	0.902	0.905	0.812
partner 0.04 µg/mL	0.524	0.0658	0.511	0.171	0.468	0.109

C[C@@H](O)[C@H]1C(=O)N2C(C(=O)O)=C(SCCNC=N)C[C@H]12 [Imipenem] + Clc1ccc(COC(Cn2ccnc2)c2ccc(Cl)cc2Cl)c(Cl)c1 [Miconazole]
Settings	Bliss interaction score
B. subtilis 168	-0.0815
S. aureus DSM 20231	0.0412
S. aureus Newman	-0.0307
S. pneumoniae D39V [1]	0.0759

fitness, S. pneumoniae D39V [2]
Settings	first compound 0.005 µg/mL	first compound 0.0065 µg/mL	first compound 0.01 µg/mL	first compound 0.013 µg/mL	first compound 0.02 µg/mL	first compound 0.026 µg/mL
partner 1.073 µg/mL	≥ 1	–	≥ 1	–	≥ 1	–
partner 1.25 µg/mL	–	0.877	–	0.869	–	0.72
partner 2.145 µg/mL	≥ 1	–	0.998	–	0.99	–
partner 2.5 µg/mL	–	0.892	–	0.907	–	0.761
partner 4.29 µg/mL	0.955	–	0.95	–	0.882	–
partner 5 µg/mL	–	0.908	–	0.947	–	0.886

C[C@@H](O)[C@H]1C(=O)N2C(C(=O)O)=C(SCCNC=N)C[C@H]12 [Imipenem] + Cn1nnc(-c2ccc(-c3ccc(N4C[C@H](CO)OC4=O)cc3F)cn2)n1 [Tedizolid]
Settings	Bliss interaction score
B. subtilis 168	0.21
S. aureus DSM 20231	-0.0424
S. aureus Newman	0.0821
S. pneumoniae D39V [1]	-0.17

fitness, S. pneumoniae D39V [2]
Settings	first compound 0.005 µg/mL	first compound 0.0065 µg/mL	first compound 0.01 µg/mL	first compound 0.013 µg/mL	first compound 0.02 µg/mL	first compound 0.026 µg/mL
partner 0.03125 µg/mL	0.922	–	0.917	–	0.913	–
partner 0.0625 µg/mL	0.958	–	0.949	–	0.993	–
partner 0.125 µg/mL	0.829	0.68	0.795	0.758	0.82	0.553
partner 0.25 µg/mL	–	0.553	–	0.607	–	0.578
partner 0.5 µg/mL	–	0.125	–	0.161	–	0.151

C[C@@H](O)[C@H]1C(=O)N2C(C(=O)O)=C(SCCNC=N)C[C@H]12 [Imipenem] + O=C1CN(/N=C/c2ccc([N+](=O)[O-])o2)C(=O)N1 [Nitrofurantoin]
Settings	Bliss interaction score
B. subtilis 168	0.0986
S. aureus DSM 20231	0.0253
S. aureus Newman	-0.0377
S. pneumoniae D39V [1]	0.049

fitness, S. pneumoniae D39V [2]
Settings	first compound 0.005 µg/mL	first compound 0.0065 µg/mL	first compound 0.01 µg/mL	first compound 0.013 µg/mL	first compound 0.02 µg/mL	first compound 0.026 µg/mL
partner 1.285 µg/mL	0.947	–	0.967	–	0.97	–
partner 2 µg/mL	–	0.931	–	0.882	–	0.842
partner 2.57 µg/mL	0.946	–	0.944	–	0.955	–
partner 4 µg/mL	–	0.912	–	0.914	–	0.804
partner 8 µg/mL	–	0.763	–	0.728	–	0.72

S. pneumoniae D39V [2], partner 5.14 µg/mL, one replicate
Settings	fitness
first compound 0.005 µg/mL	0.887
first compound 0.01 µg/mL	0.941
first compound 0.02 µg/mL	0.928

CCC[C@@H]1C[C@@H](C(=O)N[C@@H]([C@H]2O[C@H](SC)[C@H](O)[C@@H](O)[C@H]2O)[C@@H](C)O)N(C)C1 [Lincomycin] + C/C(=C\C(=O)OCCCCCCCCC(=O)O)C[C@@H]1OC[C@H](C[C@@H]2O[C@H]2[C@@H](C)[C@H](C)O)[C@@H](O)[C@H]1O [Pseudomonic acid]
Settings	Bliss interaction score
B. subtilis 168	-0.0308
S. aureus DSM 20231	0.0155
S. aureus Newman	0.031
S. pneumoniae D39V [1]	-0.269

fitness, S. pneumoniae D39V [2]
Settings	first compound 0.2 µg/mL	first compound 0.215 µg/mL	first compound 0.4 µg/mL	first compound 0.43 µg/mL	first compound 0.8 µg/mL	first compound 0.86 µg/mL
partner 0.03 µg/mL	0.649	0.828	–	0.633	0.121	0.177
partner 0.06 µg/mL	–	–	0.206	–	0.0533	0.142
partner 0.12 µg/mL	0.179	–	0.156	–	0.0889	0.12

CCC[C@@H]1C[C@@H](C(=O)N[C@@H]([C@H]2O[C@H](SC)[C@H](O)[C@@H](O)[C@H]2O)[C@@H](C)O)N(C)C1 [Lincomycin] + CO[C@H]1/C=C/O[C@@]2(C)Oc3c(C)c(O)c4c(O)c(c(/C=N/N5CCN(C)CC5)c(O)c4c3C2=O)NC(=O)/C(C)=C\C=C\[C@H](C)[C@H](O)[C@@H](C)[C@@H](O)[C@@H](C)[C@H](OC(C)=O)[C@@H]1C [Rifampicin]
Settings	Bliss interaction score
B. subtilis 168	-0.0988
S. aureus DSM 20231	-0.0747
S. aureus Newman	0.0333
S. pneumoniae D39V [1]	-0.136

fitness, S. pneumoniae D39V [2], one replicate
Settings	first compound 0.2 µg/mL	first compound 0.4 µg/mL	first compound 0.8 µg/mL
partner 0.025 µg/mL	0.137	0.0822	0.0813
partner 0.2 µg/mL	0	0	0

fitness, S. pneumoniae D39V [2]
Settings	first compound 0.2 µg/mL	first compound 0.215 µg/mL	first compound 0.4 µg/mL	first compound 0.43 µg/mL	first compound 0.8 µg/mL	first compound 0.86 µg/mL
partner 0.05 µg/mL	–	–	0.0846	–	0.0947	0.185
partner 0.1 µg/mL	0.076	–	0.0641	–	0.0864	0.147
partner 0.2 µg/mL	–	0.26	–	0.221	–	0.131
